# According to ChEMBL document CHEMBL4613288, “Combined Peptide and Small-Molecule Approach toward Nonacidic THIQ Inhibitors of the KEAP1/NRF2 Interaction” (ACS Med Chem Lett, 2020):
# Assay: Apparent permeability across apical to basolateral side in MDCK-MDR1 cells measured over 60 mins
# Format: ADME, cell-based, Canis lupus familiaris
# Settings: dog
row,SMILES,Papp A→B at 1 h [×10⁻⁶ cm/s]
1,O=C(O)[C@H]1CCCC[C@H]1C(=O)N1CCc2c(OCCO)cccc2[C@H]1CN1C(=O)c2ccccc2C1=O,0.9
2,O=C(OCc1ccccc1)[C@H]1CCCC[C@H]1C(=O)N1CCc2c(OS(=O)(=O)C(F)(F)F)cccc2C1CN1C(=O)c2ccccc2C1=O (some centres not stated),4.6
